Values of other authors in patent US9272037B2, “Method to treat premature ejaculation in humans” (priority 2005, dated 2016).

Assays:
[1] = single oral dose of tramadol 100 mg
μ-opiate receptors = μ-opiate receptors (Homo sapiens, UniProt P35372)
child = conditions: inadvertent administration of 4 mg/kg to a child
[2] = for accumulation during multiple dose treatment: multiple dose treatment with tramadol
[3] = oral, Viagra formulation
[4] = target: phosphodiesterase type 5 (PDE5) (Homo sapiens, UniProt O76074); conditions: PDE5 versus PDE6

Chain of μ-opiate receptors (P35372 whole entry): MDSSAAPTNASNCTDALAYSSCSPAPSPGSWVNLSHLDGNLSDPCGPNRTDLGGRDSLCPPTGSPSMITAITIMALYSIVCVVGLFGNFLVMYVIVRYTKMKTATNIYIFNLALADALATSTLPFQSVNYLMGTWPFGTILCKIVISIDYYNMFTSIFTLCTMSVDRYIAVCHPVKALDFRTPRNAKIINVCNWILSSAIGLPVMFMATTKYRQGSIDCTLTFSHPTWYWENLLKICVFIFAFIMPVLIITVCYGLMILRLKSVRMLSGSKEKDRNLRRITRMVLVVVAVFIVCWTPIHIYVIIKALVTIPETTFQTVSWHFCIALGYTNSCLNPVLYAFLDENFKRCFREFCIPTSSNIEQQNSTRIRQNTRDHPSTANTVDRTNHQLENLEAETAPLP

With COc1cccc(C2(O)CCCCC2CN(C)C)c1 (racemic) [tramadol, (+/−)-trans (RR,SS)-2-[(di-methylamino)methyl]-1-(3-methoxyphenyl)cyclohexanol] as the compound, how does the “duration of the analgesic effect” value [1] read?
Its value is “about 6 hours”.

What about the “affinity for μ-opiate receptors, fold less than codeine” value (μ-opiate receptors; versus codeine) of the same compound?
The value was 10 fold.

What about the “affinity for μ-opiate receptors, fold less than d-propoxyphene” value (μ-opiate receptors; versus d-propoxyphene) of the same compound?
The value was 100 fold.

What about the “affinity for μ-opiate receptors relative to dextromethorphan” value (μ-opiate receptors; versus dextromethorphan) of the same compound?
The value was “equivalent to dextromethorphan”.

What about the “affinity for μ-opiate receptors, fold less than morphine” value (μ-opiate receptors; versus morphine) of the same compound?
Its value is 6,000 fold.

What about the “adverse event after overdose” value (child) of the same compound?
The value was “seizure activity”.

What about the “accumulation during multiple dose treatment” value [2] of the same compound?
Its value is “approximately 2 fold”.

And the “time to peak serum concentrations” value ([2]; oral administration)?
Its value is no more than 2 h.

Which results are given for CN(C)C[C@H]1CCCC[C@]1(O)c1cccc(O)c1 [O-desmethyltramadol (M1), O-desmethyltramadol]?
accumulation during multiple dose treatment [2]: approximately 2 fold; half-life ([2]; single oral dose of 100 mg tramadol): 9 h

Which “amount needed to affect sleep significantly” value (humans) does the source give for Cn1c(=O)c2c(ncn2C)n(C)c1=O [caffeine, 3,7-dihydro-1,3,7-trimethyl-1H-purine-2,6-dione] here?
Its value is “more than 200 mg”.

What about the “time to maximal plasma concentrations” value (after oral, rectal or parenteral administration) of the same compound?
The value was no more than 1 h.

What about the half-life in plasma (in vivo) of the same compound?
Its half-life in plasma is 3 to 7 h.

Which absolute bioavailability [3] does the source give for CCCc1nn(C)c2c(=O)[nH]c(-c3cc(S(=O)(=O)N4CCN(C)CC4)ccc3OCC)nc12 [sildenafil, 1-[[3-(6,7-dihydro-1-methyl-7-oxo-3-propyl-1H-pyrazolo[4,3-d]pyrimidin-5-yl)-4-ethoxyphenyl]sulfonyl]-4-methyl piperazine] here?
The absolute bioavailability was “about 40%”.

What about the “potency for PDE5 compared to PDE6” value [4] of the same compound?
The value was “about 10 fold”.
